Source: US9034368B2 (PUREPHARM INC., priority 2002, dated 2015)

What was measured:
[1] = system: hyperhidrosis and gustatory sweating; settings: cited from earlier work
excessive sweating = settings: patient 3: topical application (1% pads and 1% spray)
[2] = Hay 1982; roll-on solution, distilled water; concentrations above 2%; cited from earlier work

**Q.** With `C[N+]1(C)CCC(OC(=O)C(O)(c2ccccc2)C2CCCC2)C1` (stereo not shown) [glycopyrrolate] as the compound, how does the “efficacy of topical concentration” value ([1]; 0.1% concentration, Hays 1978) read?
**A.** The value was “ineffective”.

**Q.** What about the “efficacy of solution versus cream” value ([1]; Hay 1982, 2 & 4% HEB cream base) of the same compound?
**A.** Its value is “Solution worked better than”.

**Q.** What about the relief of sweating ([1]; May 1989, 0.5 & 2.0% roll-on, 2.0% cream, almost all patients) of the same compound?
**A.** The relief of sweating was “total or partial relief. Placebo”.

**Q.** And the efficacy ([1]; Seukeran 1998, 0.50% aqueous solution)?
**A.** The efficacy was “Worked well”.

**Q.** What about the “concentration after which mild side effects begin to present themselves” value ([1]; topical, Hays 1978) of the same compound?
**A.** The value was over 4%.

**Q.** What about the side effects (excessive sweating) of the same compound?
**A.** The side effects was “not experienced any side effects”.

**Q.** And the crystallisation from solution [2]?
**A.** The crystallisation from solution was “Glycopyrrolate crystalized out”.
